Assay results from patent publication US20130172360A1, “DERIVATIVES OF AZAINDAZOLE OR DIAZAINDAZOLE TYPE AS MEDICAMENT” (PIERRE FABRE MEDICAMENT, priority 2011, published 2013).

Experiments:
ALK [1] = target: T1, ALK (Homo sapiens, UniProt Q9UM73); assay: Test for measuring inhibition of ALK kinase (GST-PLCγ1 substrate, anti-phosphotyrosine ELISA, luminescence); assay type: biochemical; settings: 250 μM ATP, 30 minutes at 30° C.; read-out: Enzymatic inhibition of ALK (IC50)
Method: Test for Measuring Inhibition of ALK Kinase:
A ViewPlate microplate (Packard) is incubated with 0.1 mg/ml GST-PLCγ1 substrate (purified recombinant form) in phosphate buffer (PBS, pH 7.4) (100 μl/well) for one hour under stirring. The plate is then saturated with blocking solution comprising 5% bovine serum albumin (BSA) (Sigma) in PBS buffer, pH 7.4.
After having added a compound according to the invention to the desired final concentration (typical range between 30 μM and 10 nM), the reaction is carried out by adding 180 ng/ml ALK to a reaction buffer comprised of 13 mM Tris, pH 7.5 (Sigma); 6.5 mM MgCl2 (Merck); 0.65 mM dithiothreitol (DTT) (Acros); 39 mM sodium ([…] (TCI); 0.65 mM sodium orthovanadate (Sigma); and 250 μM ATP (Sigma). Incubation is carried out for 30 minutes at 30° C. under stirring.
After three washings under stirring in 0.1% PBS/Tween-20 buffer (Sigma), an anti-phosphotyrosine antibody, coupled with HRP (UBI) diluted to 1/1000 in 5 mg/ml PBS/BSA buffer, is incubated for one hour with stirring. After three new washings in 0.1% PBS/Tween-20, the wells are incubated for two minutes with […] of SuperSignal ELISA mixture (Pierce).
The signal is read in luminescence mode using a luminometer (SpectraMax M5e, Molecular Devices).
IC50s are determined by nonlinear regression on the basis of a sigmoidal dose/response relationship model, wherein the Hill coefficient is left variable, carried out on the GraphPad software package according to the algorithm provided.

[2] = test system: Karpas 299 cells (human anaplastic large-cell lymphoma); assay: Test for measuring inhibition of cell (Karpas 299) proliferation (ATPlite); assay type: cell-based; settings: 72 hours
Method: Test for Measuring Inhibition of Cell (Karpas 299) Proliferation:
The antiproliferative activities of the compounds according to the invention were measured by the ATPlite technique (Perkin Elmer).
Nonadherent human anaplastic large-cell lymphoma cells (Karpas 299) are inoculated in 96-well plates (300,000 cells/ml) at day 1, at a concentration compatible with logarithmic growth for the 72 hours required for the evaluation of the compounds. All of the cells are treated at day 1 and then placed in an incubator at 37° C. under an atmosphere of 5% CO2. Cell viability is evaluated at day 4 by assaying released ATP, which is characteristic of viable cells. IC50s are determined by nonlinear regression on the basis of a sigmoidal dose/response relationship model, wherein the Hill coefficient is left variable, carried out on the GraphPad software package according to the algorithm provided.

Abl = target: T2, Abl (Homo sapiens, UniProt P00519); assay: Inhibition of a panel of kinases (Millipore): Abl; assay type: biochemical; settings: Millipore kinase panel; read-out: Enzyme inhibition (IC50, nM) Abl
T2 construct: purchased Millipore
Excerpt: (§1) Test for Measuring Inhibition of a Panel of Kinases:
(§2) These kinases are produced by Millipore and are screened according to the manufacturer's protocols.

ALK [3] = target: T1, ALK; assay: Inhibition of a panel of kinases (Millipore): ALK; assay type: biochemical; settings: Millipore kinase panel; read-out: Enzyme inhibition (IC50, nM) ALK
Excerpt: as §1, §2

[4] = test system: human anaplastic large-cell lymphoma (ALCL) tumor model; assay: In vivo antitumor activity, ALCL tumors grafted subcutaneously in mice, oral daily dosing; settings: mice with subcutaneous ALCL tumors, daily schedule; for adverse effects: animals weighed several times per week; for inhibition of ALCL tumor growth: corresponds to complete regression of the tumors
Method: Pharmacological Activity In Vivo
The compounds were administered orally at various doses on a daily schedule to mice with ALCL tumors grafted subcutaneously. Tumor size was measured regularly during the study and the animals were weighed several times per week in order to identify any adverse effects. A compound is declared active if it induces inhibition of ALCL tumor growth by at least 58%.

c-Src = target: T3, c-Src (Homo sapiens, UniProt P12931); assay: Inhibition of a panel of kinases (Millipore): c-Src; assay type: biochemical; settings: Millipore kinase panel; read-out: Enzyme inhibition (IC50, nM) c-Src
T3 construct: purchased Millipore
Excerpt: as §1, §2

T1 sequence (Q9UM73 19-1620): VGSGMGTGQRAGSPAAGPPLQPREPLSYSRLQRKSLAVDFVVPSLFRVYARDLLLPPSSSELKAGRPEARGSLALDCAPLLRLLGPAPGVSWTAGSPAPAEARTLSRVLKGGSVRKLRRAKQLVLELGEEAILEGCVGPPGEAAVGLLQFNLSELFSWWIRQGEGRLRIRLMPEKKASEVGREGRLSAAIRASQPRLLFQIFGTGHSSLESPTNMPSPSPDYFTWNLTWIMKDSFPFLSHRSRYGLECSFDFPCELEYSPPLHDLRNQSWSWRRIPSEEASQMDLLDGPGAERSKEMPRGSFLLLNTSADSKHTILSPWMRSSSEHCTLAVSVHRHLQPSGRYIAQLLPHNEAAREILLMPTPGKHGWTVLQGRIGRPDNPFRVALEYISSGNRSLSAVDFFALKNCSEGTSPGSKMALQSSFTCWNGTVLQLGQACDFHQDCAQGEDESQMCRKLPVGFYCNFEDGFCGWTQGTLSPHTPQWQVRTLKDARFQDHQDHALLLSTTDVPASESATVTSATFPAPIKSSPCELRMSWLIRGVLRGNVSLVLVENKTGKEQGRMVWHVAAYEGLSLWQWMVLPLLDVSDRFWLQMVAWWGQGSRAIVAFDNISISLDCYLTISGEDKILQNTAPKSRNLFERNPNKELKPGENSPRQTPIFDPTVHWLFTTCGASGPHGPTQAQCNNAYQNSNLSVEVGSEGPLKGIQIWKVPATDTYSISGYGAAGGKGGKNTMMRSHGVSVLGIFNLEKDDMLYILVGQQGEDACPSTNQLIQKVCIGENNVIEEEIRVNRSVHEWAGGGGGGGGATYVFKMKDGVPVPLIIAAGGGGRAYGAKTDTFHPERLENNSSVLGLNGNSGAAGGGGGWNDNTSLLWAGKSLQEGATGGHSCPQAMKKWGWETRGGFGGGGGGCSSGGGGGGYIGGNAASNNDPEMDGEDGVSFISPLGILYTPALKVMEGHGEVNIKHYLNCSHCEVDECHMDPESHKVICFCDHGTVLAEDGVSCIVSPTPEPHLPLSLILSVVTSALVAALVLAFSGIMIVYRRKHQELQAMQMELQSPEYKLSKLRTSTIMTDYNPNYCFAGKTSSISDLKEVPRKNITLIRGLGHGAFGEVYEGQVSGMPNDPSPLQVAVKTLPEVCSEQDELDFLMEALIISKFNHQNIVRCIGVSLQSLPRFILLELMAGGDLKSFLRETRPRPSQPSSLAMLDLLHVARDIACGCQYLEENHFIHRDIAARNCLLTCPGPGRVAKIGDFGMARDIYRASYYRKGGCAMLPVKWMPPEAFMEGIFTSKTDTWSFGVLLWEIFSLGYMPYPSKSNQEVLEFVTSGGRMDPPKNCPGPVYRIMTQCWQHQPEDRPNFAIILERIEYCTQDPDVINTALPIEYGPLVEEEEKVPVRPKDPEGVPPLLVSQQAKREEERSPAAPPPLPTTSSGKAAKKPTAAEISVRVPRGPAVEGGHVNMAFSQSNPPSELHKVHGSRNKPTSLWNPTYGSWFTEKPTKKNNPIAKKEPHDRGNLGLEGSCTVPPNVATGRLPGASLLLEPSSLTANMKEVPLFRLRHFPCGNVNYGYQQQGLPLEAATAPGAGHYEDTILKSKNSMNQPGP
T2 sequence (P00519 whole entry, species assumed): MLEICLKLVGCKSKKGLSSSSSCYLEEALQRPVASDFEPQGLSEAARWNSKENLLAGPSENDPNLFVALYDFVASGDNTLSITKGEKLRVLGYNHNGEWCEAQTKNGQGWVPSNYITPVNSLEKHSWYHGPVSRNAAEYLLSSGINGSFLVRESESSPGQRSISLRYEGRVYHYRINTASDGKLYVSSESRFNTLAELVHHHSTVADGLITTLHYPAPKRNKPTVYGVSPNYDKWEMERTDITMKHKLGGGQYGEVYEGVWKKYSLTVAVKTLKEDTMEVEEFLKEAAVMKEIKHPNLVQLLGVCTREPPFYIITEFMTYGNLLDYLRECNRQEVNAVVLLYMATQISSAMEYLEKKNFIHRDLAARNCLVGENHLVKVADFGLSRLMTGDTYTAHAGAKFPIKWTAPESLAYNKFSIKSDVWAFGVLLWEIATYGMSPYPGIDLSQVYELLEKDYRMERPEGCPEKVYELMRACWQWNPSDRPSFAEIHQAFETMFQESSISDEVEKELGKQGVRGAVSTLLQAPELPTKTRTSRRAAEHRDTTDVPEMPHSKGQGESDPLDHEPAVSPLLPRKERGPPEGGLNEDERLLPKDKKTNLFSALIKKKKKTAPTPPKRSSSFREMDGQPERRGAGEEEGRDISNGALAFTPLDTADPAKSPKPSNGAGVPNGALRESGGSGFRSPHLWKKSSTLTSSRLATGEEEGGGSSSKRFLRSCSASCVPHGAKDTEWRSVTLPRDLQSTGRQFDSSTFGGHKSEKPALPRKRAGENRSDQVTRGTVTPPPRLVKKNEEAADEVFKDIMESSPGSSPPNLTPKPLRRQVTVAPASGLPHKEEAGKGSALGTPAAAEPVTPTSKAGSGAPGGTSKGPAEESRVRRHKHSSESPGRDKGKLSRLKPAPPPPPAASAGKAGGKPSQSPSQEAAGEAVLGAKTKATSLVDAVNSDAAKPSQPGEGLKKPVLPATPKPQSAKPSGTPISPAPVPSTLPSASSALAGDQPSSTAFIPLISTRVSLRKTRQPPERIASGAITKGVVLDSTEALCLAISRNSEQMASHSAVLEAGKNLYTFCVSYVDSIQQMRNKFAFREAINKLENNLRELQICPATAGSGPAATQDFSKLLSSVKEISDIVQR
T3 sequence (P12931 whole entry): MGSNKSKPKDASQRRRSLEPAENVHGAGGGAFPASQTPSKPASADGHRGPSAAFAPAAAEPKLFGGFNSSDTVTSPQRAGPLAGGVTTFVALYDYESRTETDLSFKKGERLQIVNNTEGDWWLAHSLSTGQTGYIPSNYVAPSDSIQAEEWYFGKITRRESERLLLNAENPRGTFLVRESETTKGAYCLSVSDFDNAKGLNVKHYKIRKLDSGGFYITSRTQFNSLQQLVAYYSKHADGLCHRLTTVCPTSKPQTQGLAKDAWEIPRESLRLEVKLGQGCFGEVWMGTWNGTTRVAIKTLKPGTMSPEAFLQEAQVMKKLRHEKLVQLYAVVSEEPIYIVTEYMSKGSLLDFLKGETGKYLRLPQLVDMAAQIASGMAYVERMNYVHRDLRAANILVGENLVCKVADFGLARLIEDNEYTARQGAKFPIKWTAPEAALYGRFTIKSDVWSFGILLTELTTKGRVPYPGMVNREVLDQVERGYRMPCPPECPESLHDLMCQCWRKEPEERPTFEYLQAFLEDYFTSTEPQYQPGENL

| SMILES | IC50 (ALK [1]) [nM] | IC50 [2] [nM] | IC50 (Abl) [nM] | IC50 (ALK [3]) [nM] | IC50 (c-Src) [nM] | adverse effects [4] | inhibition of ALCL tumor growth [4] [%] |
| --- | --- | --- | --- | --- | --- | --- | --- |
| CN1CCN(c2ccc(C(=O)Nc3n[nH]c4ncc(CCc5cc(F)cc(F)c5)cc34)c(NC3CCOCC3)c2)CC1 [Example 31, N-(5-(3,5-difluorophenethyl)-1H-pyrazolo[3,4-b]pyridin-3-yl)-4-(4-methylpiperazin-1-yl)-2-(tetrahydro-2H-pyran-4-ylamino)benzamide] | 17 | 830 | – | – | – | – | – |
| CN1CCN(c2ccc(C(=O)Nc3n[nH]c4ncc(Sc5cc(F)cc(F)c5)cc34)c(NC3CCOCC3)c2)CC1 [Example 30, N-(5-(3,5-difluorophenylthio)-1-H-pyrazolo[3,4-b]pyridine-3-yl)-4-(4-methylpiperazine-1-yl)-2-(tetrahydro-2H-pyran-4-ylamino)benzamide] | 1 | 160 | 18 | 7 | 4 | no adverse effects | 100 |
| CN1CCN(c2ccc(CNc3n[nH]c4ncc(Sc5cc(F)cc(F)c5)cc34)cc2)CC1 [Example 28, 5-(3,5-difluorophenylthio)-N-(4-(4-methylpiperazin-1-yl)benzyl)-1H-pyrazolo[3,4-b]pyridin-3-amine] | 36 | – | – | – | – | – | – |

Now from value to compound, other results behind:

| IC50 (ALK [1]) [nM] | IC50 [2] [nM] | IC50 (Abl) [nM] | IC50 (ALK [3]) [nM] | IC50 (c-Src) [nM] | SMILES | adverse effects [4] | inhibition of ALCL tumor growth [4] [%] |
| --- | --- | --- | --- | --- | --- | --- | --- |
| 66 | 2600 | – | – | – | COc1nc2[nH]nc(NC(=O)c3ccc(N4CCN(C)CC4)cc3NC3CCOCC3)c2cc1Sc1cc(F)cc(F)c1 [Example 30-5, N-(5-(3,5-difluorophenylthio)-6-methoxy-1H-pyrazolo[3,4-b]pyridin-3-yl)-4-(4-methylpiperazin-1-yl)-2-(tetrahydro-2H-pyran-4-ylamino)benzamide] | – | – |
| 20 | 2200 | – | – | – | CN1CCN(c2ccc(C(=O)Nc3n[nH]c4ncc(Sc5ccccc5C(N)=O)cc34)c(NC3CCOCC3)c2)CC1 [Example 30-1, N-(5-(2-carbamoylphenylthio)-1H-pyrazolo[3,4-b]pyridin-3-yl)-4-(4-methylpiperazin-1-yl)-2-(tetrahydro-2H-pyran-4-ylamino)benzamide] | – | – |
| 1 | – | 38 | 15 | 9 | CN1CCN(c2ccc(C(=O)Nc3n[nH]c4ncc(Cc5cc(F)cc(F)c5)cc34)c(NC3CCOCC3)c2)CC1 [Example 30-9, N-(5-(3,5-difluorobenzyl)-1H-pyrazolo[3,4-b]pyridin-3-yl)-4-(4-methylpiperazin-1-yl)-2-(tetrahydro-2H-pyran-4-ylamino)benzamide] | no adverse effects | 100 |
